{"source": "paper PMC7894426", "about": "“Influence of verapamil on the pharmacokinetics of rotundic acid in rats and its potential mechanism” (Pharmaceutical Biology, 2021)", "key": {"CYP1A2": {"molecular_target": "T1, CYP1A2 (Homo sapiens, UniProt P05177)", "T1 construct": "purchased Research Institute for Liver Disease (Shanghai) Co., Ltd", "T1 sequence (P05177 1-516)": "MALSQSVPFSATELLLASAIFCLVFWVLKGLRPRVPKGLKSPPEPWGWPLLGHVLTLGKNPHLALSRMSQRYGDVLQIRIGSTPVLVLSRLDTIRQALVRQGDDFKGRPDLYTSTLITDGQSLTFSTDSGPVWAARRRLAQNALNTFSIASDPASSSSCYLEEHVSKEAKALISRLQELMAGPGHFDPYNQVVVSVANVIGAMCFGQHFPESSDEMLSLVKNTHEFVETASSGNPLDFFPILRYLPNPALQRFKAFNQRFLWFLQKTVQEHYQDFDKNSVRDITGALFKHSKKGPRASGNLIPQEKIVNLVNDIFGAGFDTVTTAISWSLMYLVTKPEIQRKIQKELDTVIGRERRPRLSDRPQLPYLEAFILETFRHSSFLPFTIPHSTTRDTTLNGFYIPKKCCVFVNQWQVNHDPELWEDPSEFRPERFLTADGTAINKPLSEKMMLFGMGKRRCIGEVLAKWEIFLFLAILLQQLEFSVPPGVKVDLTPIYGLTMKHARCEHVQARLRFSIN", "assay": "Metabolic depletion of RA by rhCYP1A2", "format": "in vitro ADME", "settings": "rhCYP1A2 25 pM, RA 2 µM, 30 min", "protocol": "(§1) The metabolic stability of RA was evaluated against five rhCYPs (1A2, 2C8, 2C9, 2D6 and 3A4). Incubation was taken place in 0.1 M sodium phosphate buffer (pH 7.4) containing 5 mM MgCl2, 1 mM NADPH, and 25 pM rhCYP enzyme protein at 37 °C in a total volume of 1 mL. After pre-incubated for 5 min, the reactions were started by the addition of RA methanol solution (final concentration of 2 µM). Aliquots of 50 µL incubation solution were collected from the reaction at 0, 5, 10, 20 and 30 min, and quenched with 50 µL ice-cold methanol (containing 0.5% formic acid) and 100 µL ice-cold acetonitrile containing IS (10 ng/mL). The heat-inactivated rhCYP3A4 were used as negative controls. All reactions were conducted in triplicate, followed by LC-MS/MS analysis. Results presented in percentage of drug remaining in incubation starting at 100% at time zero."}, "CYP2C9": {"molecular_target": "T2, CYP2C9 (Homo sapiens, UniProt P11712)", "T2 construct": "purchased Research Institute for Liver Disease (Shanghai) Co., Ltd", "T2 sequence (P11712 whole entry)": "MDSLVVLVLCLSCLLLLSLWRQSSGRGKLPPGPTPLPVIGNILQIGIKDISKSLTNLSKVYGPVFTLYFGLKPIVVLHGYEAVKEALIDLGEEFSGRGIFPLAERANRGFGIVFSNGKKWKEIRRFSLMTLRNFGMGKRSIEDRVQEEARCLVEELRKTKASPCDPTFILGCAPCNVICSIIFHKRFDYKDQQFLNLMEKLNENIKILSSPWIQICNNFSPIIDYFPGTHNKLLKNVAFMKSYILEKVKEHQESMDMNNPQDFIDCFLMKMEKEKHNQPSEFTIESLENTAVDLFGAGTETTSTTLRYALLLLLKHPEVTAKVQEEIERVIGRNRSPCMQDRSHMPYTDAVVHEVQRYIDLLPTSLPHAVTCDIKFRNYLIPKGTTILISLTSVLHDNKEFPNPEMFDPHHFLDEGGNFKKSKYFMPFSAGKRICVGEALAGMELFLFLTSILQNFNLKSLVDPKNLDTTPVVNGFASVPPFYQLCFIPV", "assay": "Metabolic depletion of RA by rhCYP2C9", "format": "in vitro ADME", "settings": "rhCYP2C9 25 pM, RA 2 µM, 30 min", "protocol": "as §1"}, "MDCKII-Mock cells": {"system": "MDCKII-Mock cells", "assay": "MTS cell-proliferation assay", "format": "cell-based, canine", "settings": "25 µM RA"}}}
{"smiles": "C[C@@H]1CC[C@]2(C(=O)O)CC[C@]3(C)C(=CC[C@@H]4[C@@]5(C)CC[C@H](O)[C@@](C)(CO)[C@@H]5CC[C@]43C)[C@@H]2[C@]1(C)O", "note": "[RA, Rotundic acid]", "values": [{"measurement": "metabolism of RA (substrate depletion)", "setting": "CYP1A2", "value": "hardly metabolized"}, {"measurement": "RA converted", "setting": "CYP2C9", "value": 41.4, "unit": "%"}, {"measurement": "effect on cell proliferation (MTS)", "setting": "MDCKII-Mock cells", "value": "did not influence the cell proliferation"}]}
